Data on twelve molecules can be found in ChEMBL document CHEMBL1201862, “PubChem BioAssay data set” (2004).

SMILES strings stand for the structures.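 Step 1: Grow cells in 96-well plates. Step 2: Expose to compound for 48 hours at 5 concentrations. Step 3: Interpolate endpoints linearly; if unreached, use highest concentration. Here, GI50 denotes the concentration required for 50% inhibition of growth.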 Active and inactive are the calls of the source. Rule as the data show it: active = GI50 up to about 1.1 µM and inactive = higher.

Assay in all cases: NCI tumour cell line growth inhibition, 48 h
In experiment [1] the test system is HCC 2998.
The test system of experiment [2] is OVCAR-5.
Experiment [3] relates to MOLT-4.
Experiment [4] concerns A549.
The test system of experiment [5] is M19-MEL.
In experiment [6] the test system is HT-29.
Experiment [7] has as its system LOX IMVI.
Experiment [8] relates to HL-60.
Experiment [9] concerns A498.
Experiment [10] concerns SR.
Experiment [11] relates to DMS-273.
Experiment [12] has as its system SK-OV-3.
In experiment [13] the test system is ACHN.
The test system of experiment [14] is CAKI-1.
Experiment [15] relates to SF-295.
Experiment [16] has as its system Hs-578T.
Experiment [17] has as its system OVCAR-8.
The test system of experiment [18] is MDA-N.
For experiment [19], the system named is HCT-15.
Experiment [20] has as its system MCF7.

As to `O=[N+]([O-])c1nc(-c2ccccn2)[nH]c1[N+](=O)[O-]`, the GI50 was 96.4 µM (inactive) in experiment [1]; > 100 µM (inactive) in experiment [2]; 39.2 µM (inactive) in experiment [3]; 53.8 µM (inactive) in experiment [4]; 57.7 µM (inactive) in [5]; 47.5 µM (inactive) in experiment [6]. Moreover, the GI50 in [7] was 68.7 µM (inactive); in experiment [8] it was 30.1 µM (inactive); in [9] it was > 100 µM (inactive); in experiment [10], 32.2 µM (inactive); in experiment [11], 65.8 µM (inactive); in experiment [12], > 100 µM (inactive). Also, the GI50 is 64.3 µM (inactive) in experiment [13], 57.7 µM (inactive) in [14] and > 100 µM (inactive) in experiment [15].
For `O=C(O)C1(Cc2ccccc2)Cc2ccccc2C1`, the GI50 in experiment [16] was 94.4 µM (inactive); in [17], > 100 µM (inactive); in [18], > 100 µM (inactive); in [19], over 100 µM; in experiment [1] it was > 100 µM (inactive); in experiment [2], > 100 µM (inactive). Also, the GI50 in experiment [3], in experiment [4], in [6], in experiment [7], in experiment [8] and in [9] was > 100 µM (inactive) in each case. In addition, the GI50 in experiment [10], in [20], in experiment [12], in experiment [13] and in experiment [15] was > 100 µM (inactive) throughout.
`COc1cc(C2=C(C#N)C(N)OC3=C2COc2ccccc23)cc(OC)c1OC` (stereo not drawn): the GI50 in [18] was > 100 µM (inactive); in experiment [19], over 100 µM; in experiment [1], 14.4 µM (inactive); in experiment [2], > 100 µM (inactive); in experiment [3], 3.16 µM (inactive); in experiment [4] it was 17.5 µM (inactive). The GI50 is 77.1 µM (inactive) in [6]; 35.5 µM (inactive) in experiment [7]; > 100 µM (inactive) in experiment [8]; 24.5 µM (inactive) in experiment [9]; 19.5 µM (inactive) in [10]; > 100 µM (inactive) in [20]. Further, the values for the GI50 in [12] and in [13] were 16.4 µM (inactive) and 12.6 µM (inactive), respectively.
`CN1C=C(C(N)=O)C2CC(O)[C@@](NC(=O)CS(N)(=O)=O)(C(=O)O)C2C1` (stereo partly drawn): the GI50 is 5.9 µM (inactive) in experiment [17]; 8.91 µM in experiment [19]; 18.5 µM (inactive) in [1]; 2.42 µM (inactive) in experiment [2]; 1.7 µM (inactive) in experiment [3]; 3.25 µM (inactive) in [4]. The GI50 in experiment [5] was 4.39 µM (inactive); in [6] it was 3.33 µM (inactive); in experiment [7] it was 2.37 µM (inactive); in experiment [8] it was < 0.01 µM (active); in experiment [9], 2.03 µM (inactive); in [10] it was 2.02 µM (inactive). The GI50 in experiment [11] is 3.21 µM (inactive); in [12] it was 2.47 µM (inactive); in experiment [13] it was 4.88 µM (inactive); in experiment [14] it was 5.46 µM (inactive); in experiment [15] it was 2.75 µM (inactive).
Turning to `CCOC(=O)NC(Nc1cc(Cl)ccc1OC)(C(F)(F)F)C(F)(F)F`, the GI50 in experiment [16] is > 100 µM (inactive); in experiment [18] it was > 100 µM (inactive); in [19], over 100 µM; in experiment [1], > 100 µM (inactive); in [2] it was > 100 µM (inactive); in experiment [3], > 100 µM (inactive). Also, the GI50 in experiment [4] is > 100 µM (inactive); in [6], > 100 µM (inactive); in [7], > 100 µM (inactive); in experiment [8], > 100 µM (inactive); in experiment [9], > 100 µM (inactive); in experiment [10] it was 74.3 µM (inactive). The GI50 in [20], in [12], in experiment [13] and in [14] was > 100 µM (inactive) throughout.
With `C[N+](C)(CCCCCC[N+](C)(C)CCCN1C(=O)c2cccc3cccc(c23)C1=O)CCCN1C(=O)c2cccc3cccc(c23)C1=O`, the GI50 in experiment [16] is > 100 µM (inactive); in experiment [17] it was > 100 µM (inactive); in experiment [18], > 100 µM (inactive); in [19], over 100 µM; in experiment [2], > 100 µM (inactive); in [3] it was > 100 µM (inactive). Besides, the GI50 in [4], in experiment [6], in experiment [7], in [8], in experiment [9] and in experiment [10] was > 100 µM (inactive) each time. For the same molecule, the GI50 is > 100 µM (inactive) in [20]; > 100 µM (inactive) in experiment [12]; > 100 µM (inactive) in experiment [13]; 78 µM (inactive) in experiment [14]; 41.7 µM (inactive) in [15].
As for `CC12CCC3=C(CSC4=C3CSc3ccccc34)C1=CCCC2=O` (stereo not drawn), the GI50 was 78.5 µM (inactive) in experiment [17]; 29.8 µM in experiment [19]; 47.4 µM (inactive) in [1]; 37.8 µM (inactive) in [2]; 16.8 µM (inactive) in [3]; 36.5 µM (inactive) in experiment [4]. For the same molecule, the GI50 was 86.9 µM (inactive) in experiment [5]; 34.1 µM (inactive) in experiment [6]; 69.8 µM (inactive) in experiment [7]; 73.1 µM (inactive) in [8]; 65.8 µM (inactive) in experiment [10]; 82.8 µM (inactive) in [11]. For the same molecule, the GI50 in [13] is 69.2 µM (inactive); in experiment [14], 35.1 µM (inactive).
For the molecule `S=C1SC(=N\c2ccccc2)/C(=N/c2ccccc2)N1c1ccc2ccccc2c1`, the GI50 in [16] was 64.1 µM (inactive); in experiment [17], > 100 µM (inactive); in experiment [18] it was > 100 µM (inactive); in experiment [19], 93.3 µM; in experiment [1], > 100 µM (inactive); in experiment [2], > 100 µM (inactive). The GI50 in experiment [8], in experiment [9], in experiment [10], in [20], in experiment [12] and in experiment [14] was > 100 µM (inactive) in each case. In experiment [15], the GI50 was > 100 µM (inactive).
As for `CN(C)CCCNC(=O)c1cccc2ccccc12`, the GI50 in experiment [17] was > 100 µM (inactive); in [19], over 100 µM; in experiment [3] it was > 100 µM (inactive); in experiment [4], > 100 µM (inactive); in experiment [5], > 10 µM (inactive); in experiment [6] it was > 100 µM (inactive). Also, the GI50 is > 100 µM (inactive) in experiment [7]; 12.7 µM (inactive) in [8]; > 100 µM (inactive) in [11]; > 100 µM (inactive) in experiment [12]; > 100 µM (inactive) in [13]; > 100 µM (inactive) in [15].
Consider `C[C@H]1SC(c2ccc(Cl)cc2Cl)N(NC(=O)c2ccncc2)C1=O` (stereo partly drawn), for which the GI50 in [16] is 64.7 µM (inactive); in experiment [17] it was 49.9 µM (inactive); in experiment [18] it was 23 µM (inactive); in experiment [19] it was 42 µM; in [2] it was 28.8 µM (inactive); in [3], > 10 µM (inactive). Also, the GI50 in experiment [6] was 53 µM (inactive); in [8] it was 28.9 µM (inactive); in [9], 12.4 µM (inactive); in [10], 55.8 µM (inactive); in experiment [20], 8.59 µM (inactive); in experiment [12], 65.2 µM (inactive). The GI50 in experiment [13] was 27.5 µM (inactive); in experiment [14], > 100 µM (inactive); in experiment [15], 49.1 µM (inactive).
With `O=C(Nc1ccn(CCO)c(=O)n1)c1ccccc1`, the GI50 is > 100 µM (inactive) in experiment [17]; over 100 µM in [19]; > 100 µM (inactive) in [2]; > 100 µM (inactive) in experiment [4]; > 100 µM (inactive) in experiment [5]; > 100 µM (inactive) in [6]. Moreover, the GI50 in experiment [7], in experiment [8], in experiment [9], in experiment [10], in experiment [11] and in experiment [12] was > 100 µM (inactive) in each case. Besides, the GI50 in experiment [13], in experiment [14] and in experiment [15] was > 100 µM (inactive) throughout.
On to `Cc1cc(Cl)cc2c1NC(=O)C2(O)CC(=O)c1ccco1` (stereo not drawn), for which the GI50 is 88.9 µM (inactive) in [16]; > 78.3 µM (inactive) in experiment [17]; 10.4 µM (inactive) in experiment [18]; over 100 µM in [19]; > 100 µM (inactive) in experiment [1]; > 100 µM (inactive) in experiment [2]. Besides, the GI50 in experiment [3] is 0.92 µM (active); in experiment [4], > 70.6 µM (inactive); in [5], 15.6 µM (inactive); in [6], > 79.6 µM (inactive); in experiment [7] it was > 42 µM (inactive); in experiment [9], 62.7 µM (inactive). Further, the GI50 in experiment [10] is 0.506 µM (active); in experiment [11], > 100 µM (inactive); in experiment [12] it was > 100 µM (inactive); in experiment [13] it was > 100 µM (inactive); in [14], > 100 µM (inactive); in experiment [15], > 73.3 µM (inactive).
